Results published in US4051129A, “Process for preparing 7-methoxycephalosporin compounds” (Sankyo Company Limited, priority 1974, dated 1977).
Converted amounts (≈) assume the structure as drawn. Like-named read-outs stand apart in the source and are kept apart here.

Tests used:
Assay type in all cases: cell-based
[1] = test system: Klebsiella neumoniae 806; test: Minimum Inhibitory Concentration, Klebsiella neumoniae 806; settings: Klebsiella, 806, read-out: Minimum Inhibitory Concentration
[2] = test system: Proteus vulgaris; test: Minimum Inhibitory Concentration, Proteus vulgaris; settings: V: Proteus vulgaris
[3] = test system: Staphylococcus aureus 209 P; test: Minimum Inhibitory Concentration, Staphylococcus aureus 209 P; settings: IA: Staphylococcus aureus 209 P
[4] = test system: Salmonella enteritidis Gartner; test: Minimum Inhibitory Concentration, Salmonella enteritidis Gartner; settings: Salmonella enterica; VI: Salmonella enteritidis Gartner
[5] = test system: Shigella flexneri Komagome; test: Minimum Inhibitory Concentration, Shigella flexneri Komagome; settings: III: Shigella flexneri Komagome
[6] = test system: Klebsiella neumoniae 846 (resistant to CER); test: Minimum Inhibitory Concentration, Klebsiella neumoniae 846 (resistant to CER); settings: read-out: Minimum Inhibitory Concentration
[7] = test system: Staphylococcus aureus (resistant to CP and PC); test: Minimum Inhibitory Concentration, Staphylococcus aureus (resistant to CP and PC); settings: IB: Staphylococcus aureus (resistant to CP and PC)
[8] = test system: Escherichia coli 609 (resistant to CER); test: Minimum Inhibitory Concentration, Escherichia coli 609 (resistant to CER); settings: read-out: Minimum Inhibitory Concentration
[9] = test system: Escherichia coli NIHJ; test: Minimum Inhibitory Concentration, Escherichia coli NIHJ; settings: IIA: Escherichia coli NIHJ
[10] = IIB: Escherichia coli 609 (resistant to CER)

| SMILES | MIC [1] | MIC [2] | MIC [3] | MIC [4] | MIC [5] | MIC [6] | MIC [7] | MIC [8, 10] | MIC [9] | MIC ([8]; Escherichia coli) |
| --- | --- | --- | --- | --- | --- | --- | --- | --- | --- | --- |
| CO[C@@]1(NC(=O)CSCC#N)C(=O)N2C(C(=O)O)=C(CSc3nnnn3C)CS[C@@H]21 [NCCH2 S / drawing 6, 7β-cyanomethylthioacetamido-7α-methoxy-3-(1-methyl-1H-tetrazol-5-yl)thiomethyl-3-cephem-4-carboxylic acid] | 0.8 µg/mL (≈ 1.7 µM) | 1.5 µg/mL (≈ 3.18 µM) | 0.2 µg/mL (≈ 0.424 µM) | 0.2 µg/mL (≈ 0.424 µM) | 0.8 µg/mL (≈ 1.7 µM) |  |  |  |  |  |
| CO[C@@]1(NC(=O)CSCCO)C(=O)N2C(C(=O)O)=C(CSc3nnnn3C)CS[C@@H]21 [HOCH2 CH2 S / drawing 6, 7β-(2-hydroxyethylthio)acetamido-7α-methoxy-3-(1-methyl-1H-tetrazol-5-yl)thiomethyl-3-cephem-4-carboxylic acid] |  | 3.1 µg/mL (≈ 6.5 µM) | 0.8 µg/mL (≈ 1.68 µM) | 0.8 µg/mL (≈ 1.68 µM) | 1.5 µg/mL (≈ 3.15 µM) | 200 µg/mL (≈ 420 µM) |  |  |  |  |
| CO[C@@]1(NC(=O)CS(C)(=O)=O)C(=O)N2C(C(=O)O)=C(CSc3nnnn3C)CS[C@@H]21 [CH3 SO2 / drawing 6, 7β-methylsulfonylacetamido-7α-methoxy-3-(1-methyl-1H-tetrazol-5-yl)thiomethyl-3-cephem-4-carboxylic acid] |  |  |  |  | 1.5 µg/mL (≈ 3.13 µM) |  |  |  |  |  |
| CO[C@@]1(NC(=O)CSCN=[N+]=[N-])C(=O)N2C(C(=O)O)=C(COC(C)=O)CS[C@@H]21 [N3 CH2 S / OCOCH3, 3-acetoxymethyl-7β-azidomethylthioacetamido-7α-methoxy-3-cephem-4-carboxylic acid] | 6.2 µg/mL (≈ 14.4 µM) |  |  |  | 6.2 µg/mL (≈ 14.4 µM) | > 200 µg/mL |  |  |  |  |
| CCS(=O)(=O)CC(=O)N[C@]1(OC)C(=O)N2C(C(=O)O)=C(CSc3nnnn3C)CS[C@@H]21 [C2 H5 SO2 / drawing 6, 7β-ethylsulfonylacetamido-7α-methoxy-3-(1-methyl-1H-tetrazol-5-yl)thiomethyl-3-cephem-4-carboxylic acid] |  |  |  | 0.8 µg/mL (≈ 1.62 µM) | 1.5 µg/mL (≈ 3.05 µM) |  |  |  |  |  |
| CO[C@@]1(NC(=O)CSCC#N)C(=O)N2C(C(=O)O)=C(COC(C)=O)CS[C@@H]21 [NCCH2 S / OCOCH3, 3-acetoxymethyl-7β-cyanomethylthioacetamido-7α-methoxy-3-cephem-4-carboxylic acid] |  |  |  |  | 3.1 µg/mL (≈ 7.46 µM) |  |  |  |  |  |
| CO[C@@]1(NC(=O)CSc2ccon2)C(=O)N2C(C(=O)O)=C(CSc3nnnn3C)CS[C@@H]21 [drawing 12 / drawing 10, 7β-(3-isoxazolylthio)acetamido-7α-methoxy-3-(1-methyl-1H-tetrazol-5-yl)thiomethyl-3-cephem-4-carboxylic acid] |  |  | 0.2 µg/mL (≈ 0.4 µM) | 0.8 µg/mL (≈ 1.6 µM) | 3.1 µg/mL (≈ 6.21 µM) | > 400 µg/mL | 0.8 µg/mL (≈ 1.6 µM) |  |  |  |
| CO[C@@]1(NC(=O)CSC(C)C#N)C(=O)N2C(C(=O)O)=C(CSc3nnnn3C)CS[C@@H]21 (stereo partly drawn) [drawing 8 / drawing 6, 7β-(1-cyanoethyl)-acetamido-7α-methoxy-3-(1-methyl-1H-tetrazol-5-yl)thiomethyl-3-cephem-4-carboxylic acid] | 1.5 µg/mL (≈ 3.09 µM) | 0.8 µg/mL (≈ 1.65 µM) | 0.4 µg/mL (≈ 0.824 µM) | 0.4 µg/mL (≈ 0.824 µM) | 1.5 µg/mL (≈ 3.09 µM) | 400 µg/mL (≈ 824 µM) | 0.8 µg/mL (≈ 1.65 µM) | 3.1 µg/mL (≈ 6.38 µM) | 1.5 µg/mL (≈ 3.09 µM) |  |
| C#CCSCC(=O)N[C@]1(OC)C(=O)N2C(C(=O)O)=C(COC(C)=O)CS[C@@H]21 [drawing 14 / OCOCH3] | 12.5 µg/mL (≈ 30.2 µM) | 12.5 µg/mL (≈ 30.2 µM) | 1.5 µg/mL (≈ 3.62 µM) | 6.2 µg/mL (≈ 15 µM) | 12.5 µg/mL (≈ 30.2 µM) | > 200 µg/mL | 6.2 µg/mL (≈ 15 µM) |  |  | 12.5 µg/mL (≈ 30.2 µM) |
| CO[C@@]1(NC(=O)CSc2ccon2)C(=O)N2C(C(=O)O)=C(COC(C)=O)CS[C@@H]21 [drawing 13 / OCOCH3, 3-acetoxymethyl-7β-(3-isoxazolylthio)acetamido-7α-methoxy-3-cephem-4-carboxylic acid] |  |  |  |  | 6.2 µg/mL (≈ 14 µM) |  |  |  |  |  |
| CO[C@@]1(NC(=O)CSCN=[N+]=[N-])C(=O)N2C(C(=O)O)=C(CSc3nnnn3C)CS[C@@H]21 [N3 CH2 S / drawing 10, 7β-azidomethylthioacetamido-7α-methoxy-3-(1-methyl-1H-tetrazol-5-yl)thiomethyl-3-cephem-4-carboxylic acid] |  |  | 0.4 µg/mL (≈ 0.82 µM) | 0.8 µg/mL (≈ 1.64 µM) | 1.5 µg/mL (≈ 3.08 µM) | > 200 µg/mL | 0.4 µg/mL (≈ 0.82 µM) |  |  |  |
| CO[C@@]1(NC(=O)CS(=O)(=O)CCC#N)C(=O)N2C(C(=O)O)=C(CSc3nnnn3C)CS[C@@H]21 [NC(CH2)2 SO2 / drawing 6, 7β-cyanoethylsulfonyl-acetamido-7α-methoxy-3-(1-methyl-1H-tetrazol-5-yl)thiomethyl-3-cephem-4-carboxylic acid] |  |  |  | 0.8 µg/mL (≈ 1.55 µM) | 3.1 µg/mL (≈ 5.99 µM) | 200 µg/mL (≈ 386 µM) |  |  |  |  |
| CO[C@@]1(NC(=O)C[n+]2cc([O-])on2)C(=O)N2C(C(=O)O)=C(CSc3nnnn3C)CS[C@@H]21 [drawing 7 / drawing 6, 7β-(sydnon-3)acetamido-7α-methoxy-3-(1-methyl-1H-tetrazol-5-yl)thiomethyl-3-cephem-4-carboxylic acid] |  |  | 0.8 µg/mL (≈ 1.65 µM) | 0.8 µg/mL (≈ 1.65 µM) | 1.5 µg/mL (≈ 3.1 µM) | > 200 µg/mL |  |  |  |  |
| C#CCSCC(=O)N[C@]1(OC)C(=O)N2C(C(=O)O)=C(CSc3nnnn3C)CS[C@@H]21 [drawing 9 / drawing 10, 7β-propargylthioacetamido-7α-methoxy-3-(1-methyl-1H-tetrazol-5-yl)thiomethyl-3-cephem-4-carboxylic acid] |  |  |  |  | 3.1 µg/mL (≈ 6.59 µM) |  |  |  |  |  |
| CO[C@@]1(NC(=O)CSCN=[N+]=[N-])C(=O)N2C(C(=O)O)=C(COC(N)=O)CS[C@@H]21 [N3 CH2 S / OCONH2, 7β-azidomethylthioacetamido-3-carbamoyloxymethyl-7α-methoxy-3-cephem-4-carboxylic acid] |  |  | 0.2 µg/mL (≈ 0.462 µM) |  | 3.1 µg/mL (≈ 7.17 µM) | > 400 µg/mL |  |  |  |  |
| CO[C@@]1(NC(=O)CSCC#N)C(=O)N2C(C(=O)O)=C(COC(N)=O)CS[C@@H]21 [NCCH2 S / OCONH2, 3-carbamoyloxymethyl-7β-cyanomethylthioacetamido-7α-methoxy-3-cephem-4-carboxylic acid] | 3.1 µg/mL (≈ 7.44 µM) |  |  | 1.5 µg/mL (≈ 3.6 µM) | 3.1 µg/mL (≈ 7.44 µM) |  | 3.1 µg/mL (≈ 7.44 µM) | 1.5 µg/mL (≈ 3.6 µM) |  |  |
| CO[C@@]1(NC(=O)COc2ccon2)C(=O)N2C(C(=O)O)=C(CSc3nnnn3C)CS[C@@H]21 [drawing 11 / drawing 10, 7β-(3-isoxazolyloxy)acetamido-7α-methoxy-3-(1-methyl-1H-tetrazol-5-yl)thiomethyl-3-cephem-4-carboxylic acid] |  |  |  |  | 3.1 µg/mL (≈ 6.41 µM) |  |  |  |  |  |
